Laboratory results reported in BindingDB's records for doi:10.1021/jm0001626 (Signal Pharmaceuticals, 2000).
pIC50: −log10 of the molar value.

target: Transcription factor Jun (Homo sapiens, UniProt P05412); assay: Concentration required to inhibit activator protein-1(AP-1) mediated transcriptional activation in human Jurkat T-cells
Sequence (P05412 whole entry): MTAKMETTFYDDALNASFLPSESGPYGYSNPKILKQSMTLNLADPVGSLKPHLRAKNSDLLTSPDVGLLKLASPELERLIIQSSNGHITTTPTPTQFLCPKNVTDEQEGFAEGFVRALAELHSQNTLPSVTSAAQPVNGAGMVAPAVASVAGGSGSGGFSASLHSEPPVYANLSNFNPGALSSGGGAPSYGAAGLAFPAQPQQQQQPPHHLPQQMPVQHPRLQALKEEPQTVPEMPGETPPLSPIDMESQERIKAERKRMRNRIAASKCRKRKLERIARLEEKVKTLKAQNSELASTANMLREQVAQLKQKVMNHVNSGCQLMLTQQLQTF

pIC50 | Compound
6.52 | O=C(Nc1cc(C(F)(F)F)cc(C(F)(F)F)c1)c1cnc(Cl)nc1 [2-Chloro-pyrimidine-5-carboxylic acid (3,5-bis-trifluoromethyl-phenyl)-amide]
< 5.00 | Cc1ncc(C(=O)Nc2cc(C(F)(F)F)cc(C(F)(F)F)c2)c(C(F)(F)F)n1 [2-Methyl-4-trifluoromethyl-pyrimidine-5-carboxylic acid (3,5-bis-trifluoromethyl-phenyl)-amide]
5.10 | O=C(Nc1cc(C(F)(F)F)cc(C(F)(F)F)c1)c1cnc(Cl)nc1-c1cccs1 [2-Chloro-4-thiophen-2-yl-pyrimidine-5-carboxylic acid (3,5-bis-trifluoromethyl-phenyl)-amide]
< 5.00 | O=C(Nc1cc(C(F)(F)F)cc(C(F)(F)F)c1)c1cc(C(F)(F)F)nc(Cl)n1 [2-Chloro-6-trifluoromethyl-pyrimidine-4-carboxylic acid (3,5-bis-trifluoromethyl-phenyl)-amide]
< 5.00 | N#Cc1ncc(C(=O)Nc2cc(C(F)(F)F)cc(C(F)(F)F)c2)c(C(F)(F)F)n1 [2-Cyano-4-trifluoromethyl-pyrimidine-5-carboxylic acid (3,5-bis-trifluoromethyl-phenyl)-amide]
< 5.00 | O=C(Nc1cc(C(F)(F)F)cc(C(F)(F)F)c1)c1cnc(C(F)(F)F)nc1C(F)(F)F [2,4-Bis-trifluoromethyl-pyrimidine-5-carboxylic acid (3,5-bis-trifluoromethyl-phenyl)-amide]
< 5.00 | O=C(Nc1cc(C(F)(F)F)cc(C(F)(F)F)c1)c1cc(Cl)nc(Cl)n1 [2,6-Dichloro-pyrimidine-4-carboxylic acid (3,5-bis-trifluoromethyl-phenyl)-amide]
6.52 | CCc1nc(Cl)ncc1C(=O)Nc1cc(C(F)(F)F)cc(C(F)(F)F)c1 [2-Chloro-4-ethyl-pyrimidine-5-carboxylic acid (3,5-bis-trifluoromethyl-phenyl)-amide]
< 5.00 | O=C(Nc1cc(C(F)(F)F)cc(C(F)(F)F)c1)c1cnc(C(F)(F)F)nc1Cl [4-Chloro-2-trifluoromethyl-pyrimidine-5-carboxylic acid (3,5-bis-trifluoromethyl-phenyl)-amide]
< 5.00 | O=C(Nc1cc(C(F)(F)F)cc(C(F)(F)F)c1)c1cnc(-c2ccccc2)nc1 [2-Phenyl-pyrimidine-5-carboxylic acid (3,5-bis-trifluoromethyl-phenyl)-amide]
6.30 | CCCc1nc(Cl)ncc1C(=O)Nc1cc(C(F)(F)F)cc(C(F)(F)F)c1 [2-Chloro-4-propyl-pyrimidine-5-carboxylic acid (3,5-bis-trifluoromethyl-phenyl)-amide]
< 4.52 | O=C(Nc1cc(C(F)(F)F)cc(C(F)(F)F)c1)c1ccc(Cl)cc1C(F)(F)F [N-(3,5-Bis-trifluoromethyl-phenyl)-4-chloro-2-trifluoromethyl-benzamide]
< 5.00 | Cc1cc(C(=O)Nc2cc(C(F)(F)F)cc(C(F)(F)F)c2)nc(Cl)n1 [2-Chloro-6-methyl-pyrimidine-4-carboxylic acid (3,5-bis-trifluoromethyl-phenyl)-amide]
6.22 | O=C(Nc1cc(C(F)(F)F)cc(C(F)(F)F)c1)c1cnc(Cl)nc1C(F)(F)C(F)(F)F [2-Chloro-4-pentafluoroethyl-pyrimidine-5-carboxylic acid (3,5-bis-trifluoromethyl-phenyl)-amide]
< 5.00 | Cc1nc(C(F)(F)F)ncc1C(=O)Nc1cc(C(F)(F)F)cc(C(F)(F)F)c1 [4-Methyl-2-trifluoromethyl-pyrimidine-5-carboxylic acid (3,5-bis-trifluoromethyl-phenyl)-amide]
< 5.00 | O=C(Nc1cc(C(F)(F)F)cc(C(F)(F)F)c1)c1cnc(C(F)(F)F)nc1 [2-Trifluoromethyl-pyrimidine-5-carboxylic acid (3,5-bis-trifluoromethyl-phenyl)-amide]
